Experimental data from ChEMBL document CHEMBL1134249, “The identification and characterization of hydrazinyl urea-based antibacterial agents through combinatorial chemistry” (Bioorg Med Chem Lett, 2001).
pIC50: −log10 of the molar value. Values after ≈ are worked out from the molar mass of the structure shown.

Experiments:
[1] = tested on: Bacteria; assay: Minimum inhibitory concentration required against six gram-positive organisms (G+6); type: functional
[2] = tested on: Staphylococcus aureus; assay: Inhibitory concentration required against cell wall synthesis in Staphylococcus aureus (MI246); type: functional, organism-based
[3] = Solubility at pH 7.4; type: physicochemical; details: buffer

| SMILES | MIC [1] [µM] | pIC50 [2] | solubility [3] [µg/mL] |
| --- | --- | --- | --- |
| CCc1nc2ccccc2c(=O)n1NC(=O)Nc1cc(C(F)(F)F)cc(C(F)(F)F)c1 | 7 (≈ 3.11 µg/mL) | 4.44 | 59 (≈ 133 µM) |
| O=C(Nc1cc(C(F)(F)F)cc(C(F)(F)F)c1)Nn1cnnc1 | 198 (≈ 67.2 µg/mL) | 3.63 | 53 (≈ 156 µM) |
| O=C(Nc1cc(C(F)(F)F)cc(C(F)(F)F)c1)NN1CCN(CCO)CC1 | > 300 | 3.78 | – |
| CC(C)c1nc2ccccc2c(=O)n1NC(=O)Nc1cc(C(F)(F)F)cc(C(F)(F)F)c1 | 1.5 (≈ 0.688 µg/mL) | 4.18 | 3 (≈ 6.55 µM) |
| O=C(NNC(=O)Nc1cc(C(F)(F)F)cc(C(F)(F)F)c1)Nc1ccc(C(F)(F)F)cc1 | 2 (≈ 0.949 µg/mL) | 3.84 | – |
| CN[C@H](CC(C)C)C(=O)N[C@H]1C(=O)N[C@@H](CC(N)=O)C(=O)N[C@H]2C(=O)N[C@H]3C(=O)N[C@H](C(=O)N[C@H](C(=O)O)c4cc(O)cc(O)c4-c4cc3ccc4O)[C@H](O)c3ccc(c(Cl)c3)Oc3cc2cc(c3O[C@@H]2O[C@H](CO)[C@@H](O)[C@H](O)[C@H]2O[C@H]2C[C@](C)(N)[C@H](O)[C@H](C)O2)Oc2ccc(cc2Cl)[C@H]1O [VANCOMYCIN] | 0.3 (≈ 0.435 µg/mL) | 6.40 | – |
| CC(C)c1nc2ccccc2c(=O)n1NC(=O)Nc1ccc(C(F)(F)F)cc1 | 10 (≈ 3.9 µg/mL) | 4.36 | 6 (≈ 15.4 µM) |
| O=C(Nc1cc(C(F)(F)F)cc(C(F)(F)F)c1)NN1CCOCC1 | 68 (≈ 24.3 µg/mL) | 3.87 | 5 (≈ 14 µM) |
| O=C(NNC(=O)Nc1cc(C(F)(F)F)cc(C(F)(F)F)c1)Nc1cc(C(F)(F)F)cc(C(F)(F)F)c1 | 3 (≈ 1.63 µg/mL) | 4.77 | < 0.5 |
| O=C(NNc1nccc(C(F)(F)F)n1)Nc1cc(C(F)(F)F)cc(C(F)(F)F)c1 | 4 (≈ 1.73 µg/mL) | 4.33 | 2 (≈ 4.62 µM) |
